Consider ten compounds from paper PMC10059057, “Antileishmanial and Antiplasmodial Activities of Secondary Metabolites from the Root of Antrocaryon klaineanum Pierre (Anacardiaceae)” (Molecules, 2023).

One series relates to PfDd2. Also noted: method as in PMID 34187456. The settings on record: from Hymenostegia afzelii and Endodesmia calophylloides; read-out: IC50 against PfDd2; cited from earlier work.
The subject of series [1] is P. falciparum chloroquine-resistant (PfDd2). In words: Antiplasmodial SYBR green I based fluorescence assay, chloroquine-resistant strain. The settings on record: Plasmodium falciparum, read-out: PfDd2 IC50 ± SD. Type of series: cell-based. The source says: (§1) The cryopreserved chloroquine-sensitive (Pf3D7-(MRA-102)), the multi-resistant (PfDd2) of Plasmodium falciparum, and the promastigote form of Leishmania donovani strains were obtained from BEI Resources (https://www.beiresources.org/ (accessed on 16 February 2019)) and are routinely cultured at the Antimicrobial and Biocontrol Agents Unit, University of Yaoundé I.
(§2) Plasmodium falciparum strains were maintained in 60 mm sterile petri dishes containing complete RPMI 1640 medium [RPMI 1640 (Sigma Aldrich) supplemented with 0.2% sodium bicarbonate (Sigma Aldrich), 0.5% Albumax II (Gibco), 1% hypoxanthine 100X (Gibco, Billings, MT, USA), 25 mM HEPES, and 0.04% gentamicin (Sigma Aldrich)] with fresh O^+ erythrocytes of healthy human volunteers suspended at 4% haematocrit (v/v) and incubated at 37 °C in a 5% CO2 humidified atmosphere. The medium was replaced daily with fresh complete medium to propagate the culture. Ten percent (10%) Giemsa-stained thin blood smears were examined microscopically under immersion oil to monitor cell-cycle transition and parasitaemia.
(§3) A stock solution was prepared at 100 mg/mL for each extract and fraction and at 50 mg/mL for isolated compound in 100% DMSO (Sigma–Aldrich, Munich, Germany). Master plates were then prepared by mixing 2 μL of each stock solution with 198 μL of fresh incomplete RPMI 1 640 culture medium to yield a concentration of 1 mg/mL for extract and fraction and of 0.5 mg/mL (1% DMSO) followed by a 5-fold serial dilution. Extracts and fractions were tested at concentrations ranging from 0.16 to 100 μg/mL, and isolated compounds at concentrations ranging from 0.08 to 50 μg/mL.
(§4) The use of mixed-stage cultures can enable the test molecules to interact with all the three stages (ring, trophozoite, and schizont) found during a 48-h life cycle of P. falciparum in culture. Moreover, starting the experiment with a synchronized ring stage culture provides the advantage of monitoring the growth inhibitory effect of test samples without a rise-up in parasitemia during the ring–trophozoite–schizont transitions. For this particular reason, parasites were synchronized at the ring stage by serial treatment with 5 % sorbitol for two days prior to each experiment with respect to Lambros and Vanderberg, 1979 [44] protocol.
(§5) Drug sensitivity assay was carried out in 96-well microtitration plates using the SYBR green I based fluorescence assay (Smilkstein et al., 2004). […] The fact that human red blood host cells are anucleate allows the use of SYBR green for the proper monitoring of the growth of the malarial parasite.
(§6) The 96 wells flat-bottom assay plates with sorbitol-synchronized ring stage parasites (haematocrit: 1%, parasitaemia: 2%, 90 μL) were incubated in the presence of 10 µL of pre-diluted extracts, fractions, isolated compounds, and reference drugs [Chloroquine and Artemisinin (Sigma–Aldrich, Munich, Germany)] at different triplicate concentrations (100 µg/mL–0.16 µg/mL for extract/fractions and 50 µg/mL–0.08 µg/mL for compounds). After an incubation period of 72 h at 37 °C, 100 μL of the SYBR Green I solution prepared in a lysis buffer (0.2 µL of 10,000× SYBR Green I per mL of lysis buffer) consisting of Tris (20 mM; pH 7.5), EDTA (5 mM), saponin (0.008%; m/v), and Triton X-100 (0.08%; v/v) was added to each well, mixed twice gently with a multi-channel pipette, and incubated in the dark at 37 °C for 1 h. Fluorescence was measured using the microplate reader Infinite M200 (Tecan) at an excitation and emission wavelength of 485 and 538 nm, respectively. […] The data analysis was performed with GraphPad Prism 8.0 software, fitting by nonlinear regression, and concentration–response curves were generated to determine the median inhibitory concentration (IC50) for each sample.
The resistance index (RI) was determined as the ratio of the IC50 of the samples on the multi-resistant strain Dd2 and the IC50 on the chloroquine-sensitive strain 3D7 as reported by Douanla et al..

A further series concerns Pf 3D7. Also noted: method as in PMID 34187456. Particulars: from Hymenostegia afzelii and Endodesmia calophylloides; read-out: IC50 against Pf 3D7; cited from earlier work.
Series [2] concerns P. falciparum chloroquine-sensitive (Pf3D7). As to the kind of experiment: Antiplasmodial SYBR green I based fluorescence assay, chloroquine-sensitive strain. Type of series: cell-based. The settings on record: Plasmodium falciparum, read-out: Pf3D7 IC50 ± SD.
Description: as §1, §2, §3, §4, §5, §6

Series [3] concerns L. donovani promastigotes 1S (MHOM/SD/62/1S). In words: Antileishmanial resazurin fluorimetric assay on promastigotes. The format is cell-based, Leishmania donovani. The settings on record: for IC50: Leishmania donovani. The protocol:
as §1
Leishmania donovani promastiogtes were cultured in Medium 199 (Sigma, Darmstadt, Germany) supplemented with 10% Heat-Inactivated fetal Bovine Serum (HIFBS) (Sigma, Darmstadt, Germany) and 100 IU/mL penicillin/streptomycin. The culture was maintained in 75 cm^2 cell culture flask at 28 °C and sub-cultured every 72 h.
as §3
The antileishmanial activity of crude extracts, derived fractions, and isolated compounds against cultured L. donovani promastigotes was evaluated using the resazurin fluorimetric assay as described by Siqueira-Neto et al. (2010). Briefly, promastigotes from a logarithmic phase culture (4 × 10^5 cells/mL; 90 μL) were seeded in 96-well microplates and treated with 10 μL of inhibitors at different triplicate concentrations (100 µg/mL–0.16 µg/mL for extract/fractions and 50 µg/mL–0.08 µg/mL for compounds). Plates were incubated for 28 h at 28 °C, followed by the addition of […] resazurin (0.15 mg/mL in DPBS; Sigma, Darmstadt, Germany). The negative and positive controls were, respectively, 0.1% DMSO and amphotericin B (Sigma, Darmstadt, Germany) (10–0.016 μg/mL) treated wells. After an additional incubation for 44 h, plates were then read on a Magelan Infinite M200 fluorescence plate reader (Tecan, Männedorf, Switzerland) at excitation and emission wavelengths of 530 and 590 nm, respectively. For each sample, growth inhibition percentages were calculated with Microsoft Excel Software; then, from the nonlinear regression fit, concentration–response curves were generated to deduce the median inhibitory concentration (IC50) using the GraphPad Prism 8.0 software.
(Resazurin is reduced to fluorescent resorufin, in cell work by metabolically active cells.)

Series [4] is described as follows: In vitro cytotoxicity assay (resazurin) on Raw 264.7 macrophage cells. Type of series: cell-based, murine. Particulars: mouse. The method, then: RAW 264.7 cells were obtained from RIKEN BioResource Centre Cell Bank (Tsukuba, Japan) and cultured in Dulbecco’s modified Eagle medium (DMEM) containing 1% penicillin–streptomycin and 10% FBS under 5% CO2 and humidified atmosphere at 37 °C and sub-cultured every 72 h.
as §3
The murine macrophages, Raw 264.7 cells were grown in a T-25 cm^2 flask containing the complete Dulbecco’s modified Eagle’s medium (Sigma–Aldrich, Munich, Germany) supplemented with 10% FBS (Sigma–Aldrich, Munich, Germany), 1% non-essential amino acids, and 1% (v/v) penicillin–streptomycin (Sigma–Aldrich, Munich, Germany) and incubated at 37° in a humidified atmosphere containing 5% CO2. For the experiments, 80–90% confluent cell culture was trypsinized, counted using a Neubauer haemacytometer, and seeded into a 96-well cell culture treated flat-bottomed plate (SARSTEDT, Inc. Newton, NC 28658, USA) at a cell density of 10^4 cells/well. Plates were incubated overnight to allow cell adhesion. Cells were then treated with serially diluted concentrations of crude extract, fractions, and isolated compounds for 48 h. Podophyllotoxin (Sigma–Aldrich, Munich, Germany) was used as positive control with the highest concentration of 10 μM. Afterwards, 10 μL of resazurin solution (0.15 mg/mL prepared in PBS) was added to each well, and the plates were additionally incubated for 4 h. Of important note, resazurin is a nonfluorescent, nontoxic, and cell-permeable blue dye which is used to quantify cell viability following its conversion into the highly fluorescent pink dye resorufin in response to changes in the reducing environment within the cytosol of the cell. The level of fluorescence that positively correlates with cell viability was measured using a Magellan Infinite M200 plate reader (Tecan, Germany) at an excitation wavelength of 530 nm and an emission wavelength of 590 nm. The growth proliferation percentage of cells was calculated with respect to the negative control. The concentration–response curves were plotted using inhibitory percentages versus the logarithm of the drug concentration to determine the concentration of drug that reduces cell viability by 50% (CC50) using GraphPad Prism 8.0 software. Selectivity indices (SI) [SI = CC50/IC50] were determined for each inhibitor based on their antiparasitic activity (IC50) and cell cytotoxicity (CC50 on Raw cells). Samples with SI greater than 10 were classified as poorly toxic toward Raw cells.

Series [5] concerns Leishmania donovani. Also noted: method as in PMID 24802987, PMID 36399160. The settings on record: cited from earlier work.
The test system of series [6] is Leishmania donovani. Also noted: method as in PMID 24802987, PMID 36399160. Particulars: cited from earlier work. The source holds these as a separate data set.
The subject of the next series is leishmania promastigotes. Set-up: method as in PMID 31085212. The settings on record: β-sitosterol from Ifloga spicata; cited from earlier work.
[7] abbreviates: chloroquine-resistant strain Dd2, 72 h.
Where [8] appears, read: chloroquine-sensitive strain 3D7, 72 h.
Where [9] appears, read: promastigotes, resazurin assay, read-out: L. donovani Promastigote IC50 ± SD.
The mark [10] stands for this setting: read-out: L. donovani Promastigote IC50 ± SD, promastigotes, resazurin assay.
The mark [11] stands for this setting: Raw 264.7 macrophages, 48 h treatment, resazurin, read-out: Cytotoxicity Raw Cells CC50 ± SD.

As usually defined, the IC50 is the point on the concentration scale where inhibition reaches its midpoint. As a reminder, the CC50 is the concentration at which the toxic effect on the cells reaches its halfway point. By melting point is commonly meant the temperature of the solid-liquid transition.

Converted amounts (≈) assume the structure as drawn. Read-outs that look alike come from different tables or passages of the source.

Turning to `COc1c(O)cc2c(=O)oc3c(OC)c(O)cc4c(=O)oc1c2c34` [3,3′-Dimethylellagic acid (4), 3,3′-dimethylellagic acid], the IC50 is 1360 nM in the series on PfDd2; over 50 µg/mL in [1] (setting [7]); 4.27 µM in the series on Pf 3D7; over 50 µg/mL in [2] (setting [8]); 8.07 ± 0.9 µg/mL (≈ 24.4 µM) in [3] (setting [9]). The CC50 at 48 h in series [4] was over 500 µg/mL.

As for `C[C@@H]1[C@H](O)[C@@H](C)/C=C/C=C/C=C/C=C/C=C/C=C/C=C/[C@H](O[C@@H]2O[C@H](C)[C@@H](O)[C@H](N)[C@@H]2O)C[C@@H]2O[C@](O)(C[C@@H](O)C[C@@H](O)[C@H](O)CC[C@@H](O)C[C@@H](O)CC(=O)O[C@H]1C)C[C@H](O)[C@H]2C(=O)O` [Amphotericin B, amphotericin B, reference compound], in series [3] (setting [9]), the IC50 stood at 2.9 ± 0.46 µg/mL (≈ 3.14 µM).

For `CCCCCCCC=CCCCCCCCCCCCCCC(O)C(O)C(COC1OC(CO)C(O)C(O)C1O)NC(=O)C(O)CCCCCCCCCCCCCC` [Antroklaicerebroside (1), (2S,3S,4R,2′R,18E)N-((-3,4-dihydroxy-β-D-gluco-pyranosyl)oxy)hexacos-18-en-2-yl)-2-hydroxyhexadecanamide], the melting point fell in the range of 184 to 186 °C. In addition, the IC50 in series [1] (setting [7]) is over 50 µg/mL. Besides, the IC50 in series [2] (setting [8]) came out at 42.04 ± 0.08 µg/mL. Also, the IC50 in series [3] (setting [9]) stood at 6.19 ± 0.79 µg/mL (≈ 7.33 µM). The same compound had a 50% cytotoxic concentration (CC50) at 48 h in series [4] of over 500 µg/mL.

For the compound `C[C@@H]1CC[C@H]2[C@@H](C)C(=O)O[C@@H]3O[C@@]4(C)CC[C@@H]1[C@]32OO4` [Artemesin, Artemisinin, reference compound], the IC50 in series [1] (chloroquine-resistant strain Dd2, 72 h, reference drugs in µM) was 23.7 ± 0.24 µM; in series [2] (chloroquine-sensitive strain 3D7, 72 h, reference drugs in µM) it was 0.02 µM.

Turning to `CCN(CC)CCCC(C)Nc1ccnc2cc(Cl)ccc12` (stereo not drawn) [Chloroquine, reference compound], the IC50 in series [1] (DD2, 72 h) was determined as 21.7 ± 0.25 µM; in [2] (3D7, 72 h), 0.85 ± 0.01 µM.

For `O=c1ccc2cc(O)c(O)cc2o1` [Esculetin (2), 6,7-dihydroxycoumarin], the values for the IC50 in [1] (setting [7]), in series [2] (setting [8]) and in [3] (setting [9]) were 9.3 ± 0.29 µg/mL, 45.57 ± 0.08 µg/mL and over 50 µg/mL, respectively. Besides, the CC50 at 48 h in [4] is over 500 µg/mL.

With `COc1cc([C@@H]2c3cc4c(cc3[C@H](O)[C@H]3COC(=O)[C@H]23)OCO4)cc(OC)c1OC` [Podophyllotoxin, reference compound], the CC50 at 48 h in series [4] (Raw 264.7 macrophages, positive control, unit µM, read-out: Cytotoxicity Raw Cells CC50 ± SD) came out at 0.71 ± 0.2 µM.

As to `CC[C@H](/C=C/[C@@H](C)[C@H]1CC[C@H]2[C@@H]3CC=C4C[C@@H](O)CC[C@]4(C)[C@H]3CC[C@]12C)C(C)C` [Stigmasterol (6), stigmasterol], the IC50 in [1] (DD2, 72 h) is over 50 µg/mL; in series [2] (3D7, 72 h), over 50 µg/mL; in series [3] (setting [10]) it was 8.07 ± 0.9 µg/mL (≈ 19.6 µM). The “L. donovani Promastigote IC50 ± SD” value in series [3] (promastigotes, resazurin assay) is 9.14 ± 0.96 µg/mL. For the same compound, in series [4] (setting [11]), the CC50 at 48 h is over 500 µg/mL.

As to `O=c1oc2c(O)c(O)cc3c(=O)oc4c(O)c(O)cc1c4c23` [ellagic acid], the “parasitemia in in vivo antileishmanial mouse model” value in the series with Leishmania donovani [5] was “significatively reduced parasitemia”. Also, the “in vitro effect against Leishmania donovani” value in the series with Leishmania donovani [6] was “exhibited an in vitro effect”.

In the case of `CC[C@H](CC[C@@H](C)[C@H]1CC[C@H]2[C@@H]3CC=C4C[C@@H](O)CC[C@]4(C)[C@H]3CC[C@]12C)C(C)C` [β-sitosterol (5), β-sitosterol], the IC50 in series [1] (DD2, 72 h) is over 50 µg/mL; in series [2] (3D7, 72 h), 45.3 ± 1.66 µg/mL; in series [3] (setting [10]) it was 5.56 ± 0.74 µg/mL (≈ 13.4 µM). For the same compound, the CC50 at 48 h in series [4] (setting [11]) was over 500 µg/mL. Besides, the “IC50 against leishmania promastigotes” value with leishmania promastigotes is 9.2 ± 0.06 µg/mL (≈ 22.2 µM).
